Holding throughout (experiment): Antibacterial test, agar plate dilution method (MIC)
Type in all cases: cell-based

One test deals with S. aureus MS 353. The following applies: Staphylococcus aureus, MS353, MH agar, 37° C., 18 hours. As to the method:
(§1) The antibacterial activities were tested by an agar plate dilution method in accordance with the standard method of The Japanese Chemotherapy Society [Chemotherapy, Vol.29, 76-79(1981)]. A Mulluer-Hinton (MH) agar liquid medium of a test microorganism was cultured overnight at 37° C. and the resultant culture medium was diluted with a buffered saline gelatin (BSG) solution to contain approximately 10^6 cells of the test microorganisms per milliliter, and then the diluted solution was inoculated with a micro-planter at the rate of approximately 5 μl on a MH agar medium containing a test compound. This medium was then incubated at 37° C. for 18 hours. The minimum inhibitory concentration (MIC) is determined as a minimum concentration in which no test microorganism could grow.
(§2) It is noted here that the test organisms used were all standard strains, and test compounds were Compound (8) and (15) obtained in Examples mentioned later.

A further test has as its system S. aureus Terajima. The following applies: Staphylococcus aureus, MH agar, 37° C., 18 hours. As to the method:
as §1, §2

For the next test, the system named is P. vulgalis HX-19. Conditions: MH agar, 37° C., 18 hours. The protocol: as §1, §2
The subject of another test is M. luteus ATCC 9341. The following applies: Micrococcus luteus, ATCC9341, MH agar, 37° C., 18 hours. The protocol:
as §1, §2

The subject of the next test is P. aeruginosa IFO 3445. Conditions: Pseudomonas aeruginosa, IFO3445, MH agar, 37° C., 18 hours. As to the method: as §1, §2
For the next test, the system named is S. pyogenes Cook. The following applies: Streptococcus pyogenes, MH agar, 37° C., 18 hours. As to the method:
as §1, §2

In another test the test system is E. coli NIHJ JC-2. Conditions: Escherichia coli, NIHJJC2, MH agar, 37° C., 18 hours. As to the method:
as §1, §2

The next test has as its system K. pneumoniae PCI-602. Conditions: Klebsiella pneumoniae, PCI602, MH agar, 37° C., 18 hours. As to the method:
as §1, §2

Another test has as its system E. coli K-12 C600. The following applies: Escherichia coli, K12C600, MH agar, 37° C., 18 hours. As to the method: as §1, §2
Another test has as its system B. subtilis ATCC 6633. Conditions: Bacillus subtilis, ATCC6633, MH agar, 37° C., 18 hours. As to the method:
as §1, §2

Another test has as its system P. rettgeri IFO 3850. The following applies: Providencia rettgeri, IFO3850, MH agar, 37° C., 18 hours. The protocol: as §1, §2
A further test relates to S. typhi 901. Conditions: Salmonella enterica, 18 h. As to the method:
as §1, §2

The subject of another test is P. vulgaris OX-19. Conditions: Proteus vulgaris, OX19, MH agar, 37° C., 18 hours. As to the method: as §1, §2
The subject of another test is P. aeruginosa PAO 1. Conditions: Pseudomonas aeruginosa, PAO1, MH agar, 37° C., 18 hours. The protocol: as §1, §2
For another test, the system named is E. cloacae 963. Conditions: Enterobacter cloacae, MH agar, 37° C., 18 hours. As to the method:
as §1, §2

A further test has as its system M. morganii IFO 3848. Conditions: Morganella morganii, IFO3848, MH agar, 37° C., 18 hours. As to the method: as §1, §2
For the next test, the system named is S. schottmuelleri 8006. The following applies: MH agar, 37° C., 18 hours. The protocol: as §1, §2
A further test has as its system P. aeruginosa NCTC 10490. The following applies: Pseudomonas aeruginosa, NCTC10490, MH agar, 37° C., 18 hours. The protocol:
as §1, §2

A further test relates to S. paratyphi 1015. Conditions: Salmonella enterica, MH agar, 37° C., 18 hours. The protocol: as §1, §2
In another test the test system is S. aureus FDA 209 JC-1. The following applies: Staphylococcus aureus, FDA209, MH agar, 37° C., 18 hours. As to the method: as §1, §2
The next test relates to E. aerogenes ATCC 13048. Conditions: Klebsiella aerogenes, ATCC13048, MH agar, 37° C., 18 hours. As to the method: as §1, §2
The test system of a further test is S. enteritridis G14. The following applies: MH agar, 37° C., 18 hours. The protocol:
as §1, §2

The test system of the next test is S. typhimurium 11D971. The following applies: Salmonella enterica, MH agar, 37° C., 18 hours. As to the method:
as §1, §2

For another test, the system named is P. mirabilis IFO 3849. Conditions: Proteus mirabilis, IFO3849, MH agar, 37° C., 18 hours. The protocol: as §1, §2

2 compounds from patent publication US6479478B1, “Carbapenem compounds” (Wyeth Lederle Japan, Ltd., priority 1998, dated 2002) can be followed below.

Converted amounts (≈) assume the structure as drawn. Where only a bound is given, the exact number is not on record here.

As usually defined, the MIC is the least concentration at which growth counts as inhibited. The low end stands for greater potency, the high end for weaker potency. On to `C[C@@H](O)[C@H]1C(=O)N2C(C(=O)O)=C(SC3CN(C4=NCCN4C)C3)[C@H](C)[C@H]12` [Compound (8), (1R,5S,6S)-2-[1-(1-methy-2-imidazolin-2-yl)azetidin-3-yl]-thio-6-[(R)-1-hydroxyethyl]-1-methylcarbapen-2-em-3-carbolic acid], for which the MIC in the test with S. aureus MS 353 was 0.013 µg/mL (≈ 0.0342 µM); against S. aureus Terajima, 0.013 µg/mL (≈ 0.0342 µM); in the test on P. vulgalis HX-19 it was 0.39 µg/mL (≈ 1.03 µM); against M. luteus ATCC 9341, 0.025 µg/mL (≈ 0.0657 µM); in the test on P. aeruginosa IFO 3445, 3.13 µg/mL (≈ 8.23 µM); with S. pyogenes Cook it was at most 0.006 µg/mL. Also, the MIC turned out to be 0.025 µg/mL (≈ 0.0657 µM) against E. coli NIHJ JC-2; 0.1 µg/mL (≈ 0.263 µM) with K. pneumoniae PCI-602; 0.1 µg/mL (≈ 0.263 µM) in the test on E. coli K-12 C600; 0.025 µg/mL (≈ 0.0657 µM) in the test with B. subtilis ATCC 6633; 0.05 µg/mL (≈ 0.131 µM) against P. rettgeri IFO 3850; 0.025 µg/mL (≈ 0.0657 µM) in the test with S. typhi 901. Further, the MIC turned out to be 0.2 µg/mL (≈ 0.526 µM) against P. vulgaris OX-19; 12.5 µg/mL (≈ 32.9 µM) against P. aeruginosa PAO 1; 0.1 µg/mL (≈ 0.263 µM) against E. cloacae 963; 0.2 µg/mL (≈ 0.526 µM) in the test with M. morganii IFO 3848; 0.1 µg/mL (≈ 0.263 µM) in the test on S. schottmuelleri 8006; 12.5 µg/mL (≈ 32.9 µM) against P. aeruginosa NCTC 10490. Also, the MIC turned out to be 0.1 µg/mL (≈ 0.263 µM) in the test on S. paratyphi 1015; 0.025 µg/mL (≈ 0.0657 µM) in the test on S. aureus FDA 209 JC-1; 0.1 µg/mL (≈ 0.263 µM) in the test with E. aerogenes ATCC 13048; 0.2 µg/mL (≈ 0.526 µM) against S. enteritridis G14; 0.05 µg/mL (≈ 0.131 µM) in the test on S. typhimurium 11D971; 0.78 µg/mL (≈ 2.05 µM) with P. mirabilis IFO 3849.
As for `C[C@@H](O)[C@H]1C(=O)N2C(C(=O)O)=C(SC3CN(C4=NCCN4)C3)[C@H](C)[C@H]12` [Compound (15), (1R,5S,6S)-2-[1-(1,3-imidazolin-2-yl)azetidin-3-yl]thio-6-[(R)-1-hydroxyethyl]-1-methylcarbapen-2-em-3-carbolic acid], the MIC was 0.013 µg/mL (≈ 0.0355 µM) in the test on S. aureus MS 353; at most 0.006 µg/mL in the test on S. aureus Terajima; 0.78 µg/mL (≈ 2.13 µM) in the test with P. vulgalis HX-19; 0.05 µg/mL (≈ 0.136 µM) against M. luteus ATCC 9341; 1.56 µg/mL (≈ 4.26 µM) in the test on P. aeruginosa IFO 3445; at most 0.006 µg/mL against S. pyogenes Cook. Also, the MIC was 0.025 µg/mL (≈ 0.0682 µM) against E. coli NIHJ JC-2; 0.05 µg/mL (≈ 0.136 µM) against K. pneumoniae PCI-602; 0.2 µg/mL (≈ 0.546 µM) against E. coli K-12 C600; 0.025 µg/mL (≈ 0.0682 µM) against B. subtilis ATCC 6633; 0.025 µg/mL (≈ 0.0682 µM) in the test with P. rettgeri IFO 3850; 0.025 µg/mL (≈ 0.0682 µM) against S. typhi 901. Besides, the MIC against P. vulgaris OX-19 was determined as 0.78 µg/mL (≈ 2.13 µM); against P. aeruginosa PAO 1 it was 3.13 µg/mL (≈ 8.54 µM); in the test on E. cloacae 963 it was 0.05 µg/mL (≈ 0.136 µM); against M. morganii IFO 3848, 1.56 µg/mL (≈ 4.26 µM); in the test with S. schottmuelleri 8006, 0.1 µg/mL (≈ 0.273 µM); in the test with P. aeruginosa NCTC 10490, 1.56 µg/mL (≈ 4.26 µM). The MIC with S. paratyphi 1015 was found to be 0.1 µg/mL (≈ 0.273 µM); against S. aureus FDA 209 JC-1, 0.025 µg/mL (≈ 0.0682 µM); against E. aerogenes ATCC 13048 it was 0.1 µg/mL (≈ 0.273 µM); in the test on S. enteritridis G14, 1.56 µg/mL (≈ 4.26 µM); against S. typhimurium 11D971, 0.05 µg/mL (≈ 0.136 µM); against P. mirabilis IFO 3849, 0.78 µg/mL (≈ 2.13 µM).
